Test results taken from US20080299076A1, “Compunds and compositions that cause non-apoptotic cell death and uses thereof” (priority 2006, published 2008).

Assays:
[1] = tested on: BJ-TERT/LT/ST/RAS^V12 cells; test: Cell death, viable cells counted using a hemacytometer; assay type: cell-based, human; settings: 13 μM erastin A1, 23 μM antimycin, 126 μM 2-methoxyestradiol or the combinations
[2] = tested on: BJ-TERT/LT/ST/RAS^V12 cells; test: Suppression of erastin-induced cell death (suppressor screen and follow-up); assay type: cell-based, human; settings: co-treatment with erastin
[3] = tested on: PARP1; test: PARP1 cleavage (western blot); assay type: cell-based, human; settings: BJ-TERT/LT/ST/RAS^V12 cells; staurosporine 1 μM 6 h, camptothecin 1 μM 18 h, erastin 20 μg/mL
Procedure: BJ-TERT/LT/ST/RAS^V12 tumor cells were seeded in six-well dishes, incubated overnight at 37° C. with 5% CO2 and were treated with nothing (NT), staurosporine (ST, 1 μM) for 6 h, camptothecin (C, 1 μM) for 18 h, or erastin (20 μg/mL) for the indicated time, lysed and analyzed by western blot with an anti-PARP1 antibody. A relatively high concentration of erastin was used to ensure loss of PARP cleavage was not due to a concentration-dependent effect.
BJ-TERT/LT/ST/RAS^V12 cells were seeded in polystyrene 100×20 mm dishes (Falcon/#353003) in 10 ml of media. Three million cells were seeded in each dish. After overnight incubation at 37° C. with 5% CO2, BJ-TERT/LT/ST/RAS^V12 cells were treated with nothing, staurosporine (1 μM) for 6 h, camptothecin (1 μM) for 18 h or erastin (20 μg/mL) for 6, 10, 12, 12.5, 13, 14, 18 or 26 h, and prepared for western blotting.

[4] = tested on: BJ-TERT/LT/ST/RAS^V12 cells; test: Annexin V staining; assay type: cell-based, human; settings: camptothecin 1 μM
Procedure: The percentage of cells in the indicated Ml region were 6%, 6%, and 38% in untreated, erastin-treated (9 μM), and camptothecin-treated (1 μM), respectively.

[5] = target: T1, murine VDAC3 (Mus musculus, UniProt Q60931); test: NADH oxidation assay in mitochondria from yeast expressing VDAC3; assay type: biochemical; settings: mitochondria from yeast expressing VDAC3 in place of yeast VDAC
T1 construct: expressed in transfected cells; host or cells: yeast (S. cerevisiae) with murine VDAC3 in place of yeast VDAC; isolated mitochondria
T1 sequence (Q60931 1-283): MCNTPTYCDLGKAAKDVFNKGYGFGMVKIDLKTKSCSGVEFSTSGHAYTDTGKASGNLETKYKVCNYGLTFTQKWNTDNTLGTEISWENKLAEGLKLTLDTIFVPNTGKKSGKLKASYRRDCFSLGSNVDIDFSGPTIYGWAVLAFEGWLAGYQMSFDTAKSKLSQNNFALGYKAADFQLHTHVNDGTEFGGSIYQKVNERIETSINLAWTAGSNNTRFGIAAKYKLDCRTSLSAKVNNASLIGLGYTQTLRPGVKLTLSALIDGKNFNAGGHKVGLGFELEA
Procedure: In certain embodiments, mitochondria can be purified from yeast that had been engineered to express murine or human VDAC3 in place of yeast VDAC.
Mitochondria were isolated from yeast expressing murine VDAC3 in place of yeast VDAC. The rate of NADH oxidation by an inner membrane NADH dehydrogenase was determined by measuring the change in NADH absorbance over time. Mitochondria with a disrupted outer membrane show an increased rate of NADH oxidation (red, shocked) compared to untreated mitochondria (green).
NADH oxidation in the mitochondria was measured by resuspending mitochondria isolated from yeast in R-buffer (0.65 M sucrose, 10 mM HEPES (pH 7.5), 10 mM KH2PO4, 5 mM KCl, 5 mM, MgCl2) to a final concentration of 100 μg/ml. Mitochondrial concentration was measured by dissolving mitochondria in 0.6% SDS and reading absorbance at 280 nm. The mitochondrial suspension was then incubated with 25 μM NADH, and the absorbance at 340 nm monitored over a 15 minute period. The assay was repeated in the presence of erastin. To assess mitochondrial intactness, a parallel assay was run in which mitochondria were hypotonically shocked prior to addition of NADH. The mitochondrial pellet was resuspended in dH2O and incubated on ice for 3 minutes to disrupt the outer mitochondrial membrane. 2× R-buffer was then added to restore normal osmotic conditions.

[6] = tested on: BJ-TERT/LT/ST/RAS^V12 cells; test: Alamar Blue viability assay; assay type: cell-based, human; settings: BJ-TERT/LT/ST/RAS^V12 cells versus BJ-TERT cells
Procedure: (a) Calu-1 lung carcinoma cells harboring oncogenic KRAS were infected with lentivirus containing shRNAs targeting KRAS or GFP. Sequences of shRNAs are indicated by starting nucleotide (nt) in the KRAS mRNA coding sequence. Cells were treated with erastin and viability measured by Trypan Blue exclusion. (b) Knockdown of KRAS was confirmed by western blot. (c,d) A673 cells harboring oncogenic BRAF were infected with lentiviral shRNAs targeting BRAF exon 5 (c) or the 5′ UTR (d), luciferase (LUC) (c) or GFP (d). Cells were treated with erastin and viability measured using Alamar Blue (c) and Trypan Blue (d). (e) Knockdown of BRAF was confirmed by western blot. […] BJ-TERT/LT/ST/RAS^V12 cells were treated with erastin alone or in with a MEK inhibitor U0126 (20 μM), MEK inhibitor I (10 μM) or MEK 1/2 inhibitor (50 μM). After 48 h, viability was determined using Trypan Blue. (g) Structures of certain erastin and related analogs. (h) and (i) Dose-response curves were measured for erastin A3 and erastin B2 in BJ-TERT/LT/ST/RAS^V12 cells (black squares) or BJ-TERT cells (grey circles). (j) Calu-1 lung carcinoma cells harboring oncogenic KRAS were infected with lentivirus containing shRNAs targeting KRAS or GFP. Sequences of shRNAs are indicated by starting nucleotide (nt) in the KRAS mRNA coding sequence. Cells were treated with erastin and viability (y-axis) measured by Trypan Blue exclusion. Cells were treated with erastin for 24 hours, and percent inhibition of viability (y-axis) measured using Alamar Blue (k) and Trypan Blue (l). (m) Structures of erastin and related analogs. (n) Dose-response curves were measured for erastin A6, erastin B2, erastin A8 and erastin A9 in BJ-TERT/LT/ST/RAS^V12 cells (squares) or BJ-TERT cells (circles) using Alamar Blue.
Alamar Blue metabolism: 10% Alamar Blue was added to assay plates, which were then incubated for an additional 16 hours. Red fluorescence, resulting from reduction of Alamar Blue, was detected on a Victor3 platereader (ex: 530, em: 590).
Table 2. Activity of RAS-selective lethal compound erastin in tumor cell lines. IC50 values (ng/mL) are shown using the Alamar Blue viability assay. BJ engineered tumor cells express TERT, LT, ST, and oncogenic RAS. Isogenic RAS^V12 lacking cells are identical but lack HRAS^V12. BJ-DRD cells are derived from BJ cells and contain TERT, oncogenic RAS, a truncated from of p53 (p53DD) that disrupts the tetramerization of endogenous p53, a CDK4(R24C) mutant resistant to inhibition by p16INK4A and p151NK4B (the major negative regulators of CDK4) and cyclin D1. These latter protein substitute for LT. HCT-116, A549, Calu-1, and MIA PaCa-2 are tumor cells derived from cancers (colon, lung, lung and pancreatic, respectively) known to have activating mutations in RAS.

[7] = target: T2, VDAC2 (Homo sapiens, UniProt P45880); test: VDAC2 binding assay (competition with radiolabelled erastin A9); settings: competition with tritium-labeled erastin A9
T2 construct: hexahistidine (pET-15b, thrombin site) (N); made in house; host or cells: E. coli
T2 sequence (P45880 1-294): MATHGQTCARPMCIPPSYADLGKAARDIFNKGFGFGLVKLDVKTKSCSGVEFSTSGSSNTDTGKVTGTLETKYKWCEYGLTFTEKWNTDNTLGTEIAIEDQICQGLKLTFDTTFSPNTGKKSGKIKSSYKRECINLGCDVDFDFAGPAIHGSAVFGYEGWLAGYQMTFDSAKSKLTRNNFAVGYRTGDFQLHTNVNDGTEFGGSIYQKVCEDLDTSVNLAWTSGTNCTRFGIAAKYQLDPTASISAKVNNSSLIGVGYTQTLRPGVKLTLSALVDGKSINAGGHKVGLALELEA
Procedure: Given the interactions between erastin and VDAC using affinity-based target identification and VDAC functional assays, the direct binding of erastin to VDACs was investigated.
VDAC2 protein was isolated from E. coli using a modified version of the protocol originally described by Koppel et al. Bacterial cultures were grown in LB containing 50 mg/L ampicillin to an OD of 0.6, and induced using […] IPTG overnight. Cultures were harvested by centrifugation at 6000×g for 10 min. The pellet was then washed with dH2O and resuspended in buffer (20% sucrose, 20 mM Tris, pH 8.0, […] lysozyme) and incubated at 25° C. for 10 minutes. The lysate was then sonicated for 2×30 seconds and centrifuged at 15000×g for 20 minutes. The pellet was resuspended in resuspension buffer (4.5 M guanidine-HCl, 0.1M NaCl, 20 mM Tris, pH 8.0) and incubated for 1 hour at 25° C. The suspension was then centrifuged (20 minutes, 15000×g), and the supernatant was loaded on a NI-NTA Superflow column (Qiagen) pre-equilibrated with 5 volumes of resuspension buffer. The column was washed with 5 column volumes of resuspension buffer containing 10 mM imidazole. The protein was then eluted using resuspension buffer containing 225 mM imidazole. The eluate was dialysed against 0.1 M NaCl, 20 mM Tris, pH 8.0, and 2% LDAO (Fluka) overnight, and then concentrated via centrifugation to 4 mg/mL.
To assay direct binding of erastin analogs, 40 μg of purified VDAC2 was resuspended in 100 μL of Binding Buffer (25 mM HEPES, pH 8.0, 0.1% BSA, 7 mM MgCl2, 15 mM NaCl), and incubated in the presence of 20 μM radiolabelled erastin A9 and erastin A9 or erastin A8 for 15 minutes. The mixture was then deposited onto Protran BA85 0.45 μM binding filters (Whatman) using vacuum filtration. The filter was rinsed 5 times with 1 mL wash buffer (25 mM HEPES, 0.1% BSA), and then incubated in 5 mL scintillation liquid (Cytoscint, MP Biomedicals). Radioactivity was detected on a LKB Wallac 1211 RACKBETA Liquid Scintillation Counter.

[8] = tested on: cytochrome c; test: Cytochrome c release from mitochondria; assay type: cell-based, human; settings: BJ-TERT/LT/ST/RAS^V12 cells; staurosporine 1 μM or erastin 20 μg/mL, 6 h
Procedure: BJ-TERT/LT/ST/RAS^V12 cells were seeded in polystyrene 100×20 mm dishes in 10 ml media. After overnight incubation at 37° C. with 5% CO2, the cells were treated with nothing (NT), staurosporine (ST, 1 μM) or erastin (20 μg/mL) for 6 h, washed with 10 mL ice-cold PBS and lysed by passage through a 25-gauge needle (five strokes). Cell lysates were centrifuged at 1850 rpm for 5 min at 4° C. to remove the nuclear fraction. Mitochondria were removed from the soluble cytosolic fraction by pelleting at 10,000 rpm. Supernatant and mitochondrial pellets were solubilized in SDS-PAGE loading buffer and analyzed by western blot using anti-cytochrome c and pan-VDAC antibodies and IR-dye-linked secondary antibodies. VDACs are mitochondrial proteins, so their absence in the cytosolic lane indicates effective separation of cytosol (C) from mitochondria (M). Fluorescence was detected on a LI-COR Odyssey infrared scanner.
For the cytochrome c release assay, cells were washed with 10 mL of ice-cold PBS, suspended in 120 μL of buffer (300 mM sucrose, 0.1% BSA, 10 mM HEPES, pH 7.5, 10 mM KCl, 1.5 mM MgCl2, 1 mM EGTA, 1 mM EDTA, 1 mM dithiothreitol, 2 mM phenylmethanesulfonyl fluoride and 1 protease inhibitor tablet (Roche)) and incubated on ice for 15 min. […] Supernatant and mitochondrial pellets were solubilized in SDS-PAGE loading buffer and analyzed by western blotting.

| Compound | Cell death (%) [1] | Effect on erastin-induced cell death [2] | PARP1 cleavage [3] | further results |
| --- | --- | --- | --- | --- |
| COc1cc2c(cc1O)CC[C@@H]1[C@@H]2CC[C@]2(C)[C@@H](O)CC[C@@H]12 [2-ME, 2-methoxyestradiol] | 66% | partially suppressed erastin-induced cell death | – | – |
| CC[C@@]1(O)C(=O)OCc2c1cc1n(c2=O)Cc2cc3ccccc3nc2-1 [camptothecin, reference compound] | – | – | degraded | percentage of cells in M1 region (Annexin V staining) [4]: 38% |
| CCOc1ccccc1-n1c(C(C)N2CCN(C(C)=O)CC2)nc2ccccc2c1=O (centres unmarked) [erastin A8, 2-[1-(4-Acetyl-piperazin-1-yl)-ethyl]-3-(2-ethoxy-phenyl)-3H-quinazolin-4-one] | – | – | – | Rate of NADH oxidation / permeability of outer mitochondrial membrane to NADH [5]: had no effect on mitochondrial membrane permeability; Selective lethality / activity of erastin analog [6]: inactive; Direct binding to VDAC2 [7]: unlike the inactive erastin A8, directly binds VDAC2 |
| CN[C@@H]1C[C@H]2O[C@@](C)([C@@H]1OC)n1c3ccccc3c3c4c(c5c6ccccc6n2c5c31)C(=O)NC4 [staurosporine, reference compound] | – | – | cleaved from 110 kD to 85 kD | Cytochrome c release from mitochondria [8]: released |
| antimycin | 51% | partially suppressed erastin-induced cell death | – | – |
